# Measured values taken from US10793892B2, “Method for detecting the presence of expanded spectrum β-lactamase-producing bacteria in a sample” (INSERM (INSTITUT NATIONAL DE LA SANTE ET DE LA RECHERCHE …, priority 2011, dated 2020).
# Columns and labels:
# E. aerogenes = assay: ESBL NDP test using spiked blood cultures; assay type: biochemical, Enterobacter aerogenes; parameters: key: (+) and (−) referred to color change being, red to yellow or unchanged, respectively; (+) and (−) referred to color change being, red to yellow or unchanged, respectively
# Description: Strains were isolated on Mueller-Hinton agar (Biorad, Marnes-la-Coquette, France) and incubated at 37° C. for 16 h to 24 h before performing the NDP rapid ESBL test as follows. One calibrated inoculated loop (10 μl) of the tested strain was resuspended in 150 μl of 20 mM Tris-HCl lysis buffer previously distributed in Microbead tubes (Ultraclean Microbial DNA isolation kit Bead Tubes, MO BIO Laboratories, Carlsbad, USA). Mechanical lysis of bacteria was performed by strong agitation of Microbead tubes using a vortex adapter (MO BIO Laboratories) for 30 min at room temperature. This bacterial suspension was centrifuged at 10,000×g at room temperature for 5 min. Thirty μl of the supernatant was mixed in a well of a 96-well tray with 100 μl of a 1 ml solution made of 3 mg of purified cefotaxime sodium salt (Sigma-Aldrich, Saint-Quentin-Fallavier, France) in a pH 7.8 phenol red solution. […]. […] Similarly, culture extracts were analyzed in wells containing cefotaxime and tazobactam (4 mg/ml). […]
# Rapid detection of ESBL producers was attempted from spiked blood cultures which positivity was assessed using the BactAlert blood culture system (bioMérieux). […] Spiked blood cultures were made of 1×10^3 CFU of each strain and incubated 24 to 48 h before a positivity of the blood culture was detected by the BactAlert system. […]
# E. cloacae = assay: Susceptibility testing, MIC by Etest; assay type: cell-based, Enterobacter cloacae
# Description: (§1) Susceptibility testing was performed by determining MIC values using the Etest® (AB bioMérieux; Solna, Sweden) on Mueller-Hinton agar plates at 37° C. and results were recorded according to US guidelines (CLSI), as updated in 2012 (2). The breakpoints for cefotaxime are susceptible (S)≤1 and resistant (R)≥4 μg/ml, and for ceftazidime S≤4 and R≥16 μg/ml.
# S. marcescens = assay: ESBL NDP test using cultured strains; assay type: biochemical, Serratia marcescens; parameters: key: (+) and (−) referred to color change being, red to yellow or unchanged, respectively; (+) and (−) referred to color change being, red to yellow or unchanged, respectively
# Description: (§2) Strains were isolated on Mueller-Hinton agar (Biorad, Marnes-la-Coquette, France) and incubated at 37° C. for 16 h to 24 h before performing the NDP rapid ESBL test as follows. One calibrated inoculated loop (10 μl) of the tested strain was resuspended in 150 μl of 20 mM Tris-HCl lysis buffer previously distributed in Microbead tubes (Ultraclean Microbial DNA isolation kit Bead Tubes, MO BIO Laboratories, Carlsbad, USA). Mechanical lysis of bacteria was performed by strong agitation of Microbead tubes using a vortex adapter (MO BIO Laboratories) for 30 min at room temperature. This bacterial suspension was centrifuged at 10,000×g at room temperature for 5 min. Thirty μl of the supernatant was mixed in a well of a 96-well tray with 100 μl of a 1 ml solution made of 3 mg of purified cefotaxime sodium salt (Sigma-Aldrich, Saint-Quentin-Fallavier, France) in a pH 7.8 phenol red solution. […]. The phenol red solution was made by taking 2 ml of a concentrated pH 8 phenol solution (made from a mixture of phenol red 0.5% in distilled water) to which 16.6 ml of distilled water was added. The pH value was then adjusted to a 7.8 value by adding drops of a 1 N NaOH solution. Mixture of the phenol red solution and the enzymatic suspension being tested was incubated at 37° C. for 30 min. Similarly, culture extracts were analyzed in wells containing cefotaxime and tazobactam (4 mg/ml). Other concentrations of tazobactam and other ß-lactamase inhibitors were tested giving less clear results (data not shown). […] This definition of test positivity will be applied throughout the study.
# CTX-M producers = assay: Susceptibility testing, MIC by Etest; assay type: cell-based, Enterobacteriaceae; conditions: all CTX-M producers (n=147)
# Description: as §1
# E. coli = assay: ESBL NDP test using spiked blood cultures; assay type: biochemical, Escherichia coli; parameters: key: (+) and (−) referred to color change being, red to yellow or unchanged, respectively; (+) and (−) referred to color change being, red to yellow or unchanged, respectively
# Description: as §2
# Rapid detection of ESBL producers was attempted from spiked blood cultures which positivity was assessed using the BactAlert blood culture system (bioMérieux). […] This inoculum was reached after 24-48 h incubation in this BactAlert system. Strains were inoculated into blood culture system in presence of 10 ml of sterile blood. The panel of strains used for spiking blood cultures included either non-ESBL producers (n=24) or ESBL producers (n=64) (Table 4). Spiked blood cultures were made of 1×10^3 CFU of each strain and incubated 24 to 48 h before a positivity of the blood culture was detected by the BactAlert system. Then, 15 ml of spiked blood culture were transferred in a sterile tube and centrifuged at 1,500×g for 3 min to pellet the red blood cells. The supernatant was recovered and centrifuged for 15 min at 4,000×g to pellet the bacteria. The bacterial pellet was then resuspended in 500 μl of distilled water, transferred in 1.5 ml tube and thoroughly vortexed for 15 sec to lyse the remnant red blood cells and wash the bacterial pellet. After 5 min of centrifugation at 10,000×g, the bacterial pellet was resuspended in 150 μl of 20 mM Tris-HCl lysis buffer and distributed in beadtubes. The ESBL NDP test was then applied to this pellet as described above. Experiments were systematically performed in triplicate.
# Enterobacteriaceae = assay type: biochemical; conditions: all CTX-M producers (n=147); tazobactam added to cefotaxime well
# Description: Strains were isolated on Mueller-Hinton agar (Biorad, Marnes-la-Coquette, France) and incubated at 37° C. for 16 h to 24 h before performing the NDP rapid ESBL test as follows. One calibrated inoculated loop (10 μl) of the tested strain was resuspended in 150 μl of 20 mM Tris-HCl lysis buffer previously distributed in Microbead tubes (Ultraclean Microbial DNA isolation kit Bead Tubes, MO BIO Laboratories, Carlsbad, USA). Mechanical lysis of bacteria was performed by strong agitation of Microbead tubes using a vortex adapter (MO BIO Laboratories) for 30 min at room temperature. This bacterial suspension was centrifuged at 10,000×g at room temperature for 5 min. Thirty μl of the supernatant was mixed in a well of a 96-well tray with 100 μl of a 1 ml solution made of 3 mg of purified cefotaxime sodium salt (Sigma-Aldrich, Saint-Quentin-Fallavier, France) in a pH 7.8 phenol red solution. […] The phenol red solution was made by taking 2 ml of a concentrated pH 8 phenol solution (made from a mixture of phenol red 0.5% in distilled water) to which 16.6 ml of distilled water was added. The pH value was then adjusted to a 7.8 value by adding drops of a 1 N NaOH solution. Mixture of the phenol red solution and the enzymatic suspension being tested was incubated at 37° C. for 30 min. Similarly, culture extracts were analyzed in wells containing cefotaxime and tazobactam (4 mg/ml). […]
compound,measurement,setting,value
"CO/N=C(\C(=O)N[C@@H]1C(=O)N2C(C(=O)O)=C(COC(C)=O)CS[C@H]12)c1csc(N)n1 [CTX, cefotaxime]",ESBL NDP Test from: Blood culture,"E. aerogenes; E. aerogenes BN 1113 0225, Wild-type",−
same,ESBL NDP Test from: Blood culture,"E. aerogenes; E. aerogenes E2O15, TEM-121",+
same,MICs range,"E. cloacae; E. cloacae CTX-M-14, n=1",>16 µg/mL
same,MICs range,"E. cloacae; E. cloacae CTX-M-15, n=17",>16 µg/mL
same,MICs range,"E. cloacae; E. cloacae GES-5, n=1",>16 µg/mL
same,MICs range,"E. cloacae; E. cloacae PER-1, n=1",>16 µg/mL
same,MICs range,"E. cloacae; E. cloacae SHV-5, n=1",>16 µg/mL
same,MICs range,"E. cloacae; E. cloacae TEM-3, n=2",>16 µg/mL
same,MICs range,"E. cloacae; E. cloacae VEB-1, n=1",16 µg/mL
same,MICs range,"E. cloacae; E. cloacae Wild-type, chromosome-encoded cephalosporinase, n=5",0.09 to 0.5 µg/mL
same,MICs range,"E. cloacae; E. cloacae, overexpressed chromosome-encoded cephalosporinase, n=2",>16 µg/mL
same,MICs range,"E. cloacae; E. cloacae, overexpressed chromosome-encoded cephalosporinase, n=3",>16 µg/mL
same,ESBL NDP Test from: Colonies,"S. marcescens; S. marcescens BG 1107 4243, Wild-type",−
same,ESBL NDP Test from: Colonies,"S. marcescens; S. marcescens BN 1201 0816, Wild-type",−
same,Test (color change),"S. marcescens; S. marcescens Wild-type, chromosome-encoded cephalosporinase, n=2",−
same,MIC,CTX-M producers,> 8 µg/mL
same,ESBL NDP Test from: Blood culture,"E. coli; E. coli 09.11, TEM-52",+
same,ESBL NDP Test from: Blood culture,"E. coli; E. coli 09.123, TEM-133",+
same,ESBL NDP Test from: Blood culture,"E. coli; E. coli 09.124, TEM-52",+
same,ESBL NDP Test from: Blood culture,"E. coli; E. coli 09.129, SHV-12",+
same,ESBL NDP Test from: Blood culture,"E. coli; E. coli 09.173, SHV-12",+
same,ESBL NDP Test from: Blood culture,"E. coli; E. coli 09.187, SHV-2a",+
same,ESBL NDP Test from: Blood culture,"E. coli; E. coli 09.193, SHV-12",+
same,ESBL NDP Test from: Blood culture,"E. coli; E. coli 09.207, SHV-2a",+
same,ESBL NDP Test from: Blood culture,"E. coli; E. coli 09.225, TEM-52",+
same,ESBL NDP Test from: Blood culture,"E. coli; E. coli 09.40, TEM-52",+
same,ESBL NDP Test from: Blood culture,"E. coli; E. coli 09.41, SHV-12",+
same,ESBL NDP Test from: Blood culture,"E. coli; E. coli 09.66, TEM-52",+
same,ESBL NDP Test from: Blood culture,"E. coli; E. coli 09.73, TEM-52",+
same,ESBL NDP Test from: Blood culture,"E. coli; E. coli 09.79, SHV-12",+
same,ESBL NDP Test from: Blood culture,"E. coli; E. coli 09.92, TEM-52",+
same,ESBL NDP Test from: Blood culture,"E. coli; E. coli 10.104, CTX-M-1",+
same,ESBL NDP Test from: Blood culture,"E. coli; E. coli 10.11, CTX-M-14",+
same,ESBL NDP Test from: Blood culture,"E. coli; E. coli 10.121, CTX-M-2",+
same,ESBL NDP Test from: Blood culture,"E. coli; E. coli 10.124, CTX-M-14",+
same,ESBL NDP Test from: Blood culture,"E. coli; E. coli 10.130, CTX-M-3",+
same,ESBL NDP Test from: Blood culture,"E. coli; E. coli 10.13, CTX-M-14",+
same,ESBL NDP Test from: Blood culture,"E. coli; E. coli 10.132, CTX-M-2",+
same,ESBL NDP Test from: Blood culture,"E. coli; E. coli 10.16, CTX-M-15",+
same,ESBL NDP Test from: Blood culture,"E. coli; E. coli 10.178, CTX-M-27",+
same,ESBL NDP Test from: Blood culture,"E. coli; E. coli 10.198, CTX-M-27",+
same,ESBL NDP Test from: Blood culture,"E. coli; E. coli 10.204, CTX-M-27",+
same,ESBL NDP Test from: Blood culture,"E. coli; E. coli 10.207, CTX-M-27",+
same,ESBL NDP Test from: Blood culture,"E. coli; E. coli 10.23, CTX-M-2",+
same,ESBL NDP Test from: Blood culture,"E. coli; E. coli 10.32, CTX-M-14",+
same,ESBL NDP Test from: Blood culture,"E. coli; E. coli 10.33, CTX-M-15",+
same,ESBL NDP Test from: Blood culture,"E. coli; E. coli 10.36, CTX-M-1",+
same,ESBL NDP Test from: Blood culture,"E. coli; E. coli 10.38, CTX-M-1",+
same,ESBL NDP Test from: Blood culture,"E. coli; E. coli 10.43, CTX-M-15",+
same,ESBL NDP Test from: Blood culture,"E. coli; E. coli 10.46, CTX-M-14",+
same,ESBL NDP Test from: Blood culture,"E. coli; E. coli 10.49, CTX-M-15",+
same,ESBL NDP Test from: Blood culture,"E. coli; E. coli 10.53, CTX-M-9",+
same,ESBL NDP Test from: Blood culture,"E. coli; E. coli 10.64, CTX-M-32",+
same,ESBL NDP Test from: Blood culture,"E. coli; E. coli 10.73, CTX-M-27",+
same,ESBL NDP Test from: Blood culture,"E. coli; E. coli 10.74, CTX-M-15",+
same,ESBL NDP Test from: Blood culture,"E. coli; E. coli 10.95, CTX-M-1",+
same,ESBL NDP Test from: Blood culture,"E. coli; E. coli (Belgium), ACC-1",−
same,ESBL NDP Test from: Blood culture,"E. coli; E. coli A7R5, SHV-3",+
same,ESBL NDP Test from: Blood culture,"E. coli; E. coli BG 1106 5698, Penicillinase",−
same,ESBL NDP Test from: Blood culture,"E. coli; E. coli BG 1106 6252, Wild-type",−
same,ESBL NDP Test from: Blood culture,"E. coli; E. coli BG 1106 6367, Wild-type",−
same,ESBL NDP Test from: Blood culture,"E. coli; E. coli BG 1106 7202, Penicillinase",−
same,ESBL NDP Test from: Blood culture,"E. coli; E. coli BG 1107 8873, Wild-type",−
same,ESBL NDP Test from: Blood culture,"E. coli; E. coli BG 1108 6157, Penicillinase",−
same,ESBL NDP Test from: Blood culture,"E. coli; E. coli C5O52, CTX-M-28",+
same,ESBL NDP Test from: Blood culture,"E. coli; E. coli Ec13 SYD, CMY-2",+
same,ESBL NDP Test from: Blood culture,"E. coli; E. coli GOU, DHA-1",−
same,ESBL NDP Test from: Blood culture,"E. coli; E. coli LOU, ACC-1",+
same,color of the wells,Enterobacteriaceae,turned from red to yellow
